Source: patent US11707539B2, “FAP-targeted radiopharmaceuticals and imaging agents, and uses related thereto” (Trustees of Tufts College, priority 2020, dated 2023)

Columns and labels:
[1] = Radiochemical purity by HPLC on storage at room temperature; assay type: physicochemical; conditions: 4 hours at room temperature
Procedure: The labeling efficiency was analyzed by instant thin layer chromatography (iTLC) and was typically >98%. For iTLC analysis, 1 μL of diluted labeling solution was applied to a strip of iTLC-SA chromatography paper (Agilent P/N A120B12, 114×2.5 mm) and developed in 0.1M citrate buffer (8 cm solvent migration) to assess free ^177Lu (Rf >0.5) and [^177Lu]-6555 (Rf ˜0). The iTLC strips were analyzed using an Eckert & Ziegler AR-2000 Radio-TLC Imaging Scanner. The radiochemical purity was analyzed by high performance chromatography (HPLC) and was typically >90%. Briefly, the product was analyzed using a Phenomenex Luna 3.0 μm C18(2), 100A, 150 mm×4.6 mm column. Eluent A: 50 mM ammonium acetate in water, eluent B: acetonitrile. Gradient: 2% B from 0-5 min; 2% to 26% B from 5-20 min; 26% to 98% B from 20-25 min; 98% to 2% B from 25-26 min; 2% B from 26-30 min. Flow rate: 1.0 mL/min, Radio-HPLC detector: NaI (Eckert & Zeigler FC-1000), UV: 215 nm. The radiochemical purity remained >90% for three days at room temperature.
The above depicted radiopharmaceutical [^177Lu]-6952 can be prepared as described in Example 19 using the radiochemical precursor 6952 (Example 14 above). The labeling efficiency was analyzed by instant thin layer chromatography (iTLC) and was typically >98%. […] The iTLC strips were analyzed using an Eckert & Ziegler AR-2000 Radio-TLC Imaging Scanner. The radiochemical purity was analyzed by high performance chromatography (HPLC) and was typically >90%. Briefly, the product was analyzed using a Phenomenex Luna 3.0 m C18(2), 100A, 150 mm×4.6 mm column. […]
The labeling efficiency was analyzed by instant thin layer chromatography (iTLC) and was typically >95%. […] The iTLC strips were analyzed using an Eckert & Ziegler AR-2000 Radio-TLC Imaging Scanner. The radiochemical purity was analyzed by high performance chromatography (HPLC) and was typically >95%. Briefly, the product was analyzed using a Phenomenex Luna 3.0 m C18(2), 100Å, 150 mm×4.6 mm column. […]
The labeling efficiency was analyzed by instant thin layer chromatography (iTLC) and was typically >95%. […]

[2] = tested on: HEK-mFAP tumor-bearing mice; assay: 68Ga dynamic PET/CT imaging; assay type: in vivo, mouse; conditions: dynamic PET over 60 min, IV bolus
Procedure: Part 1. Dynamic PET Imaging. The aim of the study is to perform ^68Ga-6555 PET/CT dynamic imaging in HEK-mFAP tumor-bearing mice to assess tumor uptake and retention over time, as well as non-specific uptake. HEK-mFAP tumor-bearing mice were used for the study (N=3). ^68Ga-6555 (prepared as per Example 20) PET imaging was carried out on a dedicated small animal PET/CT scanner (Siemens Multimodality Inveon, Siemens Medical Solutions USA, Inc.). The mice were anesthetized using 3% isoflurane/medical air inhalation prior to the radiotracer injection and throughout the scan duration. Warming was used to maintain healthy core body temperature of the mice during periods of unconsciousness. Following a bolus intravenous injection (via the lateral tail vein) of ^68Ga-6555 (average of 8 MBq, 7.7-8.1 MBq range), a dynamic emission scan was acquired in list mode format over 60 min. […] The reconstructed PET/CT images were analyzed with the Siemens Inveon Research Workplace software. The radioactivity retention within the selected tissue was obtained from mean voxel intensity values within the VOI and then converted to megabecquerels per milliliter using the calibration factor determined for the Inveon PET System. […] We used the maximum SUV value (SUVmax) within a VOI as a quantitative imaging metric which is independent of tissue intrinsic variations. […]

C[C@@H](NC(=O)c1ccc(CNC(=O)CN2CCN3CCN4CCN(CC2)CC(=O)[O][Ga]([O]C(=O)C3)[O]C(=O)C4)cc1)C(=O)N1CCC[C@H]1B(O)O [[^68Ga]-6555]
radiochemical purity remained [1]: > 95% | time of accumulation in the tumor (time-vs-activity curve) [2]: < 5 min | time of reaching a plateau in the tumor [2]: 60 min
